Data from US8758816B2, “Compositions comprising azelastine and methods of use thereof” (priority 2004, dated 2014).

System: patients with seasonal allergic rhinitis (SAR)
Experiment: MP 428 two-week randomized double-blind study: Total Nasal Symptom Score (TNSS), change from baseline
Assay type: in vivo, human
Design: key to Change from Baseline in AM TNSS, Mean / Change from Baseline in AM TNSS, LS Mean / Change from Baseline in AM TNSS, Median: TNSS sum of 4 symptoms each 0-3 (0=none, 3=severe); change from baseline
Description: A two-week, randomized, double-blind study, which evaluated the effects of the co-administration of ASTELIN® (azelastine hydrochloride (HCl)) and FLONASE® (fluticasone propionate) compared to either product alone in patients with seasonal allergic rhinitis (SAR) was conducted during the 2006 Texas mountain cedar season. After a 5-day placebo lead-in period, 151 patients with moderate-to-severe allergic rhinitis symptoms were randomized to either: (1) (49 total patients) ASTELIN® (azelastine hydrochloride (HCl)) plus placebo saline nasal spray 2 sprays per nostril, 15 minutes apart, twice daily (AM & PM); (2) (50 total patients) FLONASE® (fluticasone propionate) plus placebo saline nasal spray, 2 sprays per nostril, 15 minutes apart, once daily (AM) and two sessions of placebo saline nasal spray, 2 sprays per nostril, 15 minutes apart (PM); or (3) (52 total patients) the co-administration of ASTELIN® (azelastine hydrochloride (HCl)) 2 sprays per nostril plus FLONASE® (fluticasone propionate) 2 sprays per nostril (AM), 15 minutes apart, and ASTELIN® (azelastine hydrochloride (HCl)) 2 sprays per nostril plus placebo saline nasal spray, 15 minutes apart, (PM) for a 2-week double-blind treatment period.
The primary efficacy variable was the change from baseline in the Total Nasal Symptom Score (TNSS), which comprised sneezing, itchy nose, runny nose, and nasal congestion (individual symptoms scores were assigned a value between 0 and 3, where 0=no symptoms and 3=severe symptoms). This study was not statistically designed to assess the differences between ASTELIN® and FLONASE®.

[1] = Day 9, Intent-to-Treat Population
[2] = Day 10, Intent-to-Treat Population
[3] = Day 10, Per-Protocol Population
[4] = Day 11, Intent-to-Treat Population
[5] = Day 11, Per-Protocol Population
[6] = Day 12, Intent-to-Treat Population

CCC(=O)O[C@]1(C(=O)SCF)[C@H](C)C[C@H]2[C@@H]3C[C@H](F)C4=CC(=O)C=C[C@]4(C)[C@@]3(F)[C@@H](O)C[C@@]21C [Fluticasone, fluticasone propionate]
Change from Baseline in AM TNSS, Median [1]: −1.83
Change from Baseline in AM and PM Combined TNSS, Mean [1]: −5.08
Change from Baseline in AM and PM Combined TNSS, Median [1]: −4.58
Change from Baseline in PM TNSS, LS Mean [1]: −2.73
Change from Baseline in PM TNSS, Mean [1]: −2.69
Change from Baseline in PM TNSS, Median [1]: −2.00
Percent Change from Baseline in AM TNSS, LS Mean [1]: −24.94%
Percent Change from Baseline in AM TNSS, Mean [1]: −24.52%
Percent Change from Baseline in AM TNSS, Median [1]: −21.95%
Percent Change from Baseline in AM and PM Combined TNSS, LS Mean [1]: −26.50%
Percent Change from Baseline in AM and PM Combined TNSS, Mean [1]: −25.94%
Percent Change from Baseline in AM and PM Combined TNSS, Median [1]: −23.40%
Percent Change from Baseline in PM TNSS, LS Mean [1]: −27.82%
Percent Change from Baseline in PM TNSS, Mean [1]: −27.18%
Percent Change from Baseline in PM TNSS, Median [1]: −22.22%
Change from Baseline in AM and PM Combined TNSS, LS Mean (Day 9, Intent-to-Treat Population, ANCOVA model): −5.17
Change from Baseline in AM and PM Combined TNSS, LS Mean (Day 9, Per-Protocol Population): −5.21
Change from Baseline in AM and PM Combined TNSS, Mean (Day 9, Per-Protocol Population): −5.18
Change from Baseline in AM and PM Combined TNSS, Median (Day 9, Per-Protocol Population): −4.58
Percent Change from Baseline in AM and PM Combined TNSS, LS Mean (Day 9, Per-Protocol Population): −26.65%
Percent Change from Baseline in AM and PM Combined TNSS, Mean (Day 9, Per-Protocol Population): −26.33%
Percent Change from Baseline in AM and PM Combined TNSS, Median (Day 9, Per-Protocol Population): −23.40%
Change from Baseline in AM TNSS, LS Mean [2]: −2.74
Change from Baseline in AM TNSS, Mean [2]: −2.73
Change from Baseline in AM TNSS, Median [2]: −2.80
Change from Baseline in AM and PM Combined TNSS, Mean [2]: −5.61
Change from Baseline in AM and PM Combined TNSS, Median [2]: −4.83
Change from Baseline in PM TNSS, LS Mean [2]: −2.90
Change from Baseline in PM TNSS, Mean [2]: −2.88
Change from Baseline in PM TNSS, Median [2]: −2.60
Percent Change from Baseline in AM TNSS, LS Mean [2]: −28.09%
Percent Change from Baseline in AM TNSS, Mean [2]: −28.06%
Percent Change from Baseline in AM TNSS, Median [2]: −28.36%
Percent Change from Baseline in AM and PM Combined TNSS, LS Mean [2]: −28.93%
Percent Change from Baseline in AM and PM Combined TNSS, Mean [2]: −28.76%
Percent Change from Baseline in AM and PM Combined TNSS, Median [2]: −27.10%
Percent Change from Baseline in PM TNSS, LS Mean [2]: −29.73%
Percent Change from Baseline in PM TNSS, Mean [2]: −29.48%
Percent Change from Baseline in PM TNSS, Median [2]: −27.27%
Change from Baseline in AM and PM Combined TNSS, LS Mean (Day 10, Intent-to-Treat Population, ANCOVA model): −5.64
Change from Baseline in AM and PM Combined TNSS, LS Mean [3]: −5.70
Change from Baseline in AM and PM Combined TNSS, Mean [3]: −5.74
Change from Baseline in AM and PM Combined TNSS, Median [3]: −4.83
Percent Change from Baseline in AM and PM Combined TNSS, LS Mean [3]: −29.19%
Percent Change from Baseline in AM and PM Combined TNSS, Mean [3]: −29.26%
Percent Change from Baseline in AM and PM Combined TNSS, Median [3]: −27.10%
Change from Baseline in AM TNSS, LS Mean [4]: −2.52
Change from Baseline in AM TNSS, Mean [4]: −2.49
Change from Baseline in AM TNSS, Median [4]: −2.00
Change from Baseline in AM and PM Combined TNSS, Mean [4]: −5.77
Change from Baseline in AM and PM Combined TNSS, Median [4]: −4.83
Change from Baseline in PM TNSS, LS Mean [4]: −3.33
Change from Baseline in PM TNSS, Mean [4]: −3.29
Change from Baseline in PM TNSS, Median [4]: −3.00
Percent Change from Baseline in AM TNSS, LS Mean [4]: −25.25%
Percent Change from Baseline in AM TNSS, Mean [4]: −25.02%
Percent Change from Baseline in AM TNSS, Median [4]: −18.37%
Percent Change from Baseline in AM and PM Combined TNSS, LS Mean [4]: −29.71%
Percent Change from Baseline in AM and PM Combined TNSS, Mean [4]: −29.30%
Percent Change from Baseline in AM and PM Combined TNSS, Median [4]: −27.71%
Percent Change from Baseline in PM TNSS, LS Mean [4]: −34.15%
Percent Change from Baseline in PM TNSS, Mean [4]: −33.54%
Percent Change from Baseline in PM TNSS, Median [4]: −33.33%
Change from Baseline in AM and PM Combined TNSS, LS Mean (Day 11, Intent-to-Treat Population, ANCOVA model): −5.85
Change from Baseline in AM and PM Combined TNSS, LS Mean [5]: −5.89
Change from Baseline in AM and PM Combined TNSS, Mean [5]: −5.89
Change from Baseline in AM and PM Combined TNSS, Median [5]: −4.83
Percent Change from Baseline in AM and PM Combined TNSS, LS Mean [5]: −29.83%
Percent Change from Baseline in AM and PM Combined TNSS, Mean [5]: −29.69%
Percent Change from Baseline in AM and PM Combined TNSS, Median [5]: −27.71%
Change from Baseline in AM TNSS, LS Mean [6]: −2.99
Change from Baseline in AM TNSS, Mean [6]: −2.98
Change from Baseline in AM TNSS, Median [6]: −2.75
Change from Baseline in AM and PM Combined TNSS, Mean [6]: −6.08
Change from Baseline in AM and PM Combined TNSS, Median [6]: −5.17
Change from Baseline in PM TNSS, LS Mean [6]: −3.13
Change from Baseline in PM TNSS, Mean [6]: −3.10
Change from Baseline in PM TNSS, Median [6]: −3.00
Percent Change from Baseline in AM TNSS, LS Mean [6]: −30.64%
Percent Change from Baseline in AM TNSS, Mean [6]: −30.49%
Percent Change from Baseline in AM TNSS, Median [6]: −26.83%
Percent Change from Baseline in AM and PM Combined TNSS, LS Mean [6]: −31.31%
Percent Change from Baseline in AM and PM Combined TNSS, Mean [6]: −31.04%
Percent Change from Baseline in AM and PM Combined TNSS, Median [6]: −27.78%
Percent Change from Baseline in PM TNSS, LS Mean [6]: −32.00%
Percent Change from Baseline in PM TNSS, Mean [6]: −31.52%
